From patent publication US20250304620A1, “ANTIMICROBIAL PEPTIDE AND APPLICATION THEREOF” (priority 2023, published 2025)
Converted amounts (≈) assume the structure as drawn. Marks after values point to notes of the source that are not given here. Non-standard residues stand in square brackets, D forms with d. Residues, ends and D or L forms follow the SMILES beside them. dPhe(3,4-F2) = N[C@H](Cc1ccc(F)c(F)c1)C(=O)O; dPhe(4-F) = N[C@H](Cc1ccc(F)cc1)C(=O)O; d2Nal = N[C@H](Cc1ccc2ccccc2c1)C(=O)O

Experiments:
[1] = tested on: vancomycin-resistant Enterococcus (VRE); type: cell-based
Text: (§1) According to the Standards of Clinical and Laboratory Standards Institute (CLSI) of the USA for antimicrobial drug susceptibility test operation standards, the micronutrient serial twofold dilution method was used further determine MICs of the antimicrobial peptides LV-1 to LV-30 against 5 clinically common drug-resistant bacterial strains. The experiment was repeated 5 times in parallel. […] The tested drug-resistant strains included Methicillin-resistant Staphylococcus aureus (MRSA), carbapenem-resistant Escherichia coli (CREC), vancomycin-resistant Enterococcus (VRE), carbapenem-resistant Pseudomonas aeruginosa (CRPA), and carbapenem-resistant Klebsiella pneumoniae (CRKP).

[2] = tested on: Methicillin-resistant Staphylococcus aureus (MRSA); type: cell-based; conditions: Methicillin-resistant
Text: as §1

[3] = tested on: carbapenem-resistant Klebsiella pneumoniae (CRKP); type: cell-based; conditions: carbapenem-resistant (CRKP)
Text: as §1

[4] = tested on: carbapenem-resistant Escherichia coli (CREC); type: cell-based; conditions: carbapenem-resistant (CREC)
Text: as §1

[5] = tested on: carbapenem-resistant Pseudomonas aeruginosa (CRPA); type: cell-based; conditions: carbapenem-resistant (CRPA)
Text: as §1

[6] = tested on: Pseudomonas aeruginosa ATCC 27853; test: Injectable formulations on mice infected with peritonitis; type: in vivo, ICR mice; conditions: twice a day for 3 days; for Number of mice that died on each day after infection: day 1 / Number of mice that died on each day after infection: day 2 / Number of mice that died on each day after infection: day 3 / Number of mice that died on each day after infection: day 4 / Number of mice that died on each day after infection: day 5 / Average survival times (Days): n = 10; for Average survival times (Days): observed for 14 d
Description: Both female and male ICR mice were used in the test, half of the female and male mice were taken and randomly assigned into groups, with 10 mice in each group, and kept in separate cages. The mice were divided into a blank control group, a negative control group, a positive control Levofloxacin group, and AMPs LV-1 to LV-30 groups. A bacterial suspension of Pseudomonas aeruginosa ATCC 27853 was prepared, a concentration of the suspension was adjusted 1×10^9 CFU/mL for subsequent use. Except for the blank control group, all other mice were injected with the bacterial suspension (0.2 mL, 1×10^9 CFU/mL), into abdominal cavity of the mice, to establish a model. After the model was successfully established, the mice were given drug immediately according to their body weights. Except for the blank control group and the negative control group, the mice in all other groups were administered the corresponding injectable formulations via tail vein, twice a day for 3 consecutive days. The mice were then observed for 14 d. The death of mice in each group was observed, and survival time of the mice was recorded. Results of the effect of the injectable formulations of AMPs LV-1 to LV-30 on the survival time of mice infected with Pseudomonas aeruginosa are shown in Table 10.

[7] = tested on: Staphylococcus aureus (NRS 384); test: microbe, parasite or virus in culture; type: cell-based; conditions: NRS 384
Procedure, shortened: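 CLSI broth microdilution with serial twofold dilutions gave MICs against S. aureus NRS 384, with 5 parallel replicates. Levofloxacin and the AMP Cbf-K16 served as positive controls.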

Row | SMILES | MIC VRE [1] [µg/mL] | MIC MRSA [2] [µg/mL] | MIC CRKP [3] [µg/mL] | MIC CREC [4] [µg/mL] | MIC CRPA [5] [µg/mL] | Number of mice that died on each day after infection: day 1 ([6]; 1 mg/kg via tail vein) [Mouse] | Number of mice that died on each day after infection: day 2 ([6]; 1 mg/kg via tail vein) [Mouse] | Number of mice that died on each day after infection: day 3 ([6]; 1 mg/kg via tail vein) [Mouse] | Number of mice that died on each day after infection: day 4 ([6]; 1 mg/kg via tail vein) [Mouse] | Number of mice that died on each day after infection: day 5 ([6]; 1 mg/kg via tail vein) [Mouse] | Average survival times (Days) ([6]; 1 mg/kg via tail vein) | MIC against Staphylococcus aureus (NRS 384) [7] [µg/mL] | also measured
1 | CC(=O)N[C@H](CCCNC(=N)N)C(=O)N[C@H](CCCCN)C(=O)N[C@H](CC(C)C)C(=O)N[C@H](CC(C)C)C(=O)N[C@H](Cc1ccc2ccccc2c1)C(=O)N[C@H](CCCNC(=N)N)C(=O)N[C@H](CC(C)C)C(=O)N[C@H](CCCCN)C(=O)N[C@H](Cc1ccccc1)C(=O)N[C@H](CCCNC(=N)N)C(=O)N[C@H](CCCCN)C(N)=O [LV-4] (Ac-[dR][dK][dL][dL][d2Nal][dR][dL][dK][dF][dR][dK]-NH2) | 2 (≈ 1.25 µM) | 8 (≈ 5.01 µM) | 2 (≈ 1.25 µM) | 8 (≈ 5.01 µM) | 4 (≈ 2.51 µM) | 0 | 1 | 0 | 2 | 1 | 9.9**** Days | 1 (≈ 0.627 µM) | 
2 | CC(=O)N[C@H](CCCNC(=N)N)C(=O)N[C@H](CCCCN)C(=O)N[C@H](CC(C)C)C(=O)N[C@H](CC(C)C)C(=O)N[C@H](Cc1ccc(F)cc1)C(=O)N[C@H](CCCCN)C(=O)N[C@H](CC(C)C)C(=O)N[C@H](CCCCN)C(=O)N[C@H](Cc1ccc(F)cc1)C(=O)N[C@H](CCCCN)C(=O)N[C@H](CCCNC(=N)N)C(N)=O [LV-5] (Ac-[dR][dK][dL][dL][dPhe(4-F)][dK][dL][dK][dPhe(4-F)][dK][dR]-NH2) | 8 (≈ 5.15 µM) | 4 (≈ 2.57 µM) | 4 (≈ 2.57 µM) | 8 (≈ 5.15 µM) | 4 (≈ 2.57 µM) | 1 | 1 | 1 | 0 | 1 | 9.5*** Days | 1 (≈ 0.644 µM) | 
3 | CC(=O)N[C@H](CCCNC(=N)N)C(=O)N[C@H](CCCCN)C(=O)N[C@H](CC(C)C)C(=O)N[C@H](CC(C)C)C(=O)N[C@H](Cc1ccc(F)c(F)c1)C(=O)N[C@H](CCCCN)C(=O)N[C@H](CC(C)C)C(=O)N[C@H](CCCCN)C(=O)N[C@H](Cc1ccc(F)c(F)c1)C(=O)N[C@H](CCCCN)C(=O)N[C@H](CCCNC(=N)N)C(N)=O [LV-6] (Ac-[dR][dK][dL][dL][dPhe(3,4-F2)][dK][dL][dK][dPhe(3,4-F2)][dK][dR]-NH2) | 2 (≈ 1.26 µM) | 4 (≈ 2.52 µM) | 8 (≈ 5.03 µM) | 2 (≈ 1.26 µM) | 8 (≈ 5.03 µM) | 1 | 1 | 0 | 1 | 0 | 10.5**** Days | 1 (≈ 0.629 µM) | Number of mice that died on each day after infection: day 1 ([6]; 0.2 mg/kg via tail vein): 2 Mouse; Number of mice that died on each day after infection: day 2 ([6]; 0.2 mg/kg via tail vein): 2 Mouse; Number of mice that died on each day after infection: day 3 ([6]; 0.2 mg/kg via tail vein): 1 Mouse; Number of mice that died on each day after infection: day 4 ([6]; 0.2 mg/kg via tail vein): 0 Mouse; Number of mice that died on each day after infection: day 5 ([6]; 0.2 mg/kg via tail vein): 0 Mouse; Average survival times (Days) ([6]; 0.2 mg/kg via tail vein): 7.9** Days; Number of mice that died on each day after infection: day 1 ([6]; 5 mg/kg via tail vein): 1 Mouse; Number of mice that died on each day after infection: day 2 ([6]; 5 mg/kg via tail vein): 2 Mouse; Number of mice that died on each day after infection: day 3 ([6]; 5 mg/kg via tail vein): 1 Mouse; Number of mice that died on each day after infection: day 4 ([6]; 5 mg/kg via tail vein): 0 Mouse; Number of mice that died on each day after infection: day 5 ([6]; 5 mg/kg via tail vein): 0 Mouse; Average survival times (Days) ([6]; 5 mg/kg via tail vein): 9.2*** Days; survival time of mice infected with Pseudomonas aeruginosa ([6]; tail vein, observed 14 d): superior to those of the Levofloxacin group
